Key:
[1] = test system: GRANTA519; assay: 7-day co-treatment combination study, CellTiter-Glo, Loewe Volume; format: cell-based; details: GRANTA519 mantle cell lymphoma cells, 7-day co-treatment with Cpd. No. 15
Method: (§1) Multiple myeloma (MM) and mantle cell lymphoma (MCL) Cell line cultures in log-linear growth rate were treated with combinations of Cpd. No. 15 and combination partners according to a co-treatment model. […] No. 15 and the combination partner. […] Each combination was tested in quadruplicate wells. The final concentration of DMSO (vehicle) in the assay was 0.1% v/v. Fifty microliters of cell line suspension were directly dispensed to the assay-ready plates with an automated multichannel dispenser on to 384-well assay-ready plates. Assay plates were incubated for seven days in a humidified atmosphere of 5% CO2 at 37° C. Quantification of the effect of single agents or combinations on cell viability was performed through measurement of cellular adenosine triphosphate (ATP) using a CellTiter-Glo® (Promega, MadisonWIs.) Luminescent Cell Viability Assay. Luminescence was detected using a SpectraMax M5 microplate reader (Molecular Devices, Sunnyvale, CA). Concentration response plots were generated in GraphPad Prism version 7.0 for Windows, GraphPad Software, (La Jolla, CA) and curves fitted to a four-parameter logistic model with variable slope. Percent of inhibition was calculated at each treatment concentration.
(§2) The results of these combinations are summarized in Tables A and B (multiple myeloma cell lines), and Tables C and D (mantle cell lymphoma cell lines).

[2] = test system: JEKO1; assay: as above; format: cell-based; details: JEKO1 mantle cell lymphoma cells, 7-day co-treatment with Cpd. No. 15
Method: as §1, §2

[3] = test system: JVM2; assay: as above; format: cell-based; details: JVM2 mantle cell lymphoma cells, 7-day co-treatment with Cpd. No. 15
Method: as §1, §2

[4] = test system: KMS-28-BM; assay: as above; format: cell-based; details: KMS-28-BM multiple myeloma cells, 7-day co-treatment with Cpd. No. 15
Method: as §1, §2

[5] = test system: KMS34; assay: as above; format: cell-based; details: KMS34 multiple myeloma cells, 7-day co-treatment with Cpd. No. 15
Method: as §1, §2

[6] = test system: L363; assay: as above; format: cell-based; details: L363 multiple myeloma cells, 7-day co-treatment with Cpd. No. 15
Method: as §1, §2

[7] = test system: MAVER1; assay: as above; format: cell-based; details: MAVER1 mantle cell lymphoma cells, 7-day co-treatment with Cpd. No. 15
Method: as §1, §2

[8] = test system: MINO; assay: as above; format: cell-based; details: MINO mantle cell lymphoma cells, 7-day co-treatment with Cpd. No. 15
Method: as §1, §2

[9] = test system: MM1.S; assay: as above; format: cell-based; details: MM1.S multiple myeloma cells, 7-day co-treatment with Cpd. No. 15
Method: as §1, §2

[10] = test system: REC1; assay: as above; format: cell-based; details: REC1 mantle cell lymphoma cells, 7-day co-treatment with Cpd. No. 15
Method: as §1, §2

[11] = test system: RPMI-8226; assay: as above; format: cell-based; details: RPMI-8226 multiple myeloma cells, 7-day co-treatment with Cpd. No. 15
Method: as §1, §2

[12] = test system: Z138; assay: as above; format: cell-based; details: Z138 mantle cell lymphoma cells, 7-day co-treatment with Cpd. No. 15
Method: as §1, §2

[13] = test system: KARPAS422; assay: Pre-treatment model combination study (4 days pre-treatment, 3 days co-treatment), CellTiter-Glo, Loewe Volume; format: cell-based; details: KARPAS422 diffuse large B-cell lymphoma cells, 4 days Cpd. No. 15 pre-treatment then 3 days co-treatment
Method: (§3) Diffuse large B-cell lymphoma cells were seeded into flasks and pre-treated with several concentrations of Cpd. No. 15 or DMSO. Cells were then split adjusted to initial density, replated and co-treated Cpd. No. 15 and a second agent of interest using the HP D300 digital dispenser (Tecan Group, Mannedorf, Switzerland) in tissue culture treated solid white 384-well plates for additional 3 days. […] After 3 days cotreatment, cell viability was measured via ATP content using CellTiter-Glo® (Promega, Madison, WI) and luminescence was detected using a SpectraMax M5 microplate reader (Molecular Devices, Sunnyvale, CA).
(§4) Diffuse large B-cell lymphoma (DLBCL) cell line cultures in log-linear growth rate were treated with combinations of Cpd. No. 15 and combination partners according to a pre-treatment model. Cells were seeded first into 8 flasks and pre-treated with 7 different concentrations of Cpd. […] Cells were harvested from each flask and re-seeded onto the corresponding 384-well plate with the same concentration of Cpd. No. 15. and 9 concentrations of its combination partner in triplicate wells. The final concentration of DMSO (vehicle) in the assay was 0.1% v/v. Fifty microliters of cell line(s) suspension were directly dispensed to the assay-ready plates with an automated multichannel dispenser on to 384-well assay-ready plates. Assay plates were incubated for three days in a humidified atmosphere of 5% CO2 at 37° C. Quantification of the effect of single agents or combinations on cell viability was performed through measurement of cellular adenosine triphosphate (ATP) using CellTiter-Glo® (Promega, Madison, WI). Luminescence was detected using a SpectraMax M5 microplate reader (Molecular Devices, Sunnyvale, CA). Concentration response plots were generated in GraphPad Prism version 8.0 for Windows, GraphPad Software, (La Jolla, CA) and curves fitted to a four-parameter logistic model with variable slope. Percent of inhibition was calculated at each treatment concentration.

[14] = test system: SUDHL-2; assay: as above; format: cell-based; details: SUDHL-2 diffuse large B-cell lymphoma cells, 4 days Cpd. No. 15 pre-treatment then 3 days co-treatment
Method: as §3, §4

[15] = test system: SUDHL-6; assay: as above; format: cell-based; details: SUDHL-6 diffuse large B-cell lymphoma cells, 4 days Cpd. No. 15 pre-treatment then 3 days co-treatment
Method: as §3, §4

[16] = test system: WSUDLCL2; assay: as above; format: cell-based; details: WSUDLCL2 diffuse large B-cell lymphoma cells, 4 days Cpd. No. 15 pre-treatment then 3 days co-treatment
Method: as §3, §4

[17] = test system: KMS-11; assay: 7-day co-treatment combination study, CellTiter-Glo, Loewe Volume; details: KMS-11 multiple myeloma cells, 7-day co-treatment with Cpd. No. 15
[18] = test system: NCI-H929; assay: as above; format: cell-based; details: NCI-H929 multiple myeloma cells, 7-day co-treatment with Cpd. No. 15
Method: as §1, §2

| Compound | Combination effect (Loewe Volume class) of Cpd. No. 15 with combination partner [1] | Combination effect (Loewe Volume class) of Cpd. No. 15 with combination partner [2] | Combination effect (Loewe Volume class) of Cpd. No. 15 with combination partner [3] | Combination effect (Loewe Volume class) of Cpd. No. 15 with combination partner [4] | Combination effect (Loewe Volume class) of Cpd. No. 15 with combination partner [5] | Combination effect (Loewe Volume class) of Cpd. No. 15 with combination partner [6] | Combination effect (Loewe Volume class) of Cpd. No. 15 with combination partner [7] | Combination effect (Loewe Volume class) of Cpd. No. 15 with combination partner [8] | Combination effect (Loewe Volume class) of Cpd. No. 15 with combination partner [9] | Combination effect (Loewe Volume class) of Cpd. No. 15 with combination partner [10] | Combination effect (Loewe Volume class) of Cpd. No. 15 with combination partner [11] | Combination effect (Loewe Volume class) of Cpd. No. 15 with combination partner [12] | Combination effect (Loewe Volume class) of Cpd. No. 15 with combination partner [13] | Combination effect (Loewe Volume class) of Cpd. No. 15 with combination partner [14] | Combination effect (Loewe Volume class) of Cpd. No. 15 with combination partner [15] | Combination effect (Loewe Volume class) of Cpd. No. 15 with combination partner [16] | Combination effect (Loewe Volume class) of Cpd. No. 15 with combination partner [17] | Combination effect (Loewe Volume class) of Cpd. No. 15 with combination partner [18] |
| --- | --- | --- | --- | --- | --- | --- | --- | --- | --- | --- | --- | --- | --- | --- | --- | --- | --- | --- |
| Nc1cccc2c1CN(C1CCC(=O)NC1=O)C2=O (centres unmarked) [Lenalidomide, lenalidomide] | Additivity (between 1 and −1: additivity) | Synergy (VLoewe>1: synergy) | Additivity (between 1 and −1: additivity) | No Effect | Synergy (VLoewe>1: synergy) | Additivity (between 1 and −1: additivity) | Synergy (VLoewe>1: synergy) | Additivity (between 1 and −1: additivity) | Additivity (between 1 and −1: additivity) | Additivity (between 1 and −1: additivity) | Synergy (VLoewe>1: synergy) | Synergy (VLoewe>1: synergy) | No effect | Additivity (between 1 and −1: additivity) | No effect | Additivity (between 1 and −1: additivity) | Synergy (VLoewe>1: synergy) | – |
| CCN(c1cc(-c2ccc(CN3CCOCC3)cc2)cc(C(=O)NCc2c(C)cc(C)[nH]c2=O)c1C)C1CCOCC1 [Tazemetostat, tazemetostat] | No Effect | No Effect | Additivity (between 1 and −1: additivity) | – | Synergy (VLoewe>1: synergy) | Synergy (VLoewe>1: synergy) | Additivity (between 1 and −1: additivity) | No Effect | Synergy (VLoewe>1: synergy) | Additivity (between 1 and −1: additivity) | Additivity (between 1 and −1: additivity) | No Effect | No effect | Additivity (between 1 and −1: additivity) | No effect | Additivity (between 1 and −1: additivity) | – | – |
| CC1(C)CCC(CN2CCN(c3ccc(C(=O)NS(=O)(=O)c4ccc(NCC5CCOCC5)c([N+](=O)[O-])c4)c(Oc4cnc5[nH]ccc5c4)c3)CC2)=C(c2ccc(Cl)cc2)C1 [Venetoclax, venetoclax] | Synergy (VLoewe>1: synergy) | Additivity (between 1 and −1: additivity) | Synergy (VLoewe>1: synergy) | Additivity (between 1 and −1: additivity) | Additivity (between 1 and −1: additivity) | Additivity (between 1 and −1: additivity) | Synergy (VLoewe>1: synergy) | Additivity (between 1 and −1: additivity) | Additivity (between 1 and −1: additivity) | Additivity (between 1 and −1: additivity) | Additivity (between 1 and −1: additivity) | Synergy (VLoewe>1: synergy) | No effect | Synergy (VLoewe>1: synergy) | Synergy (VLoewe>1: synergy) | Synergy (VLoewe>1: synergy) | Synergy (VLoewe>1: synergy) | Synergy (VLoewe>1: synergy) |
